Assay results: paper PMC4460250, “Systems Pharmacology Dissecting Holistic Medicine for Treatment of Complex Diseases: An Example Using Cardiocerebrovascular Diseases Treated by TCM” (Evidence-based Complementary and Alternative Medicine : eCAM, 2015)

Assays:
[1] = in vivo
[2] = in vivo; cited from earlier work

Compound | Class(High: HIA value ≥0.7; Low: HIA value < 0.7) [1] | HIA(Human Intestinal Absorption) [2]
CO/N=C(\C(=O)N[C@@H]1C(=O)N2C(C(=O)OC(C)OC(C)=O)=C(COC(N)=O)CS[C@H]12)c1ccco1 (stereo partly drawn) [Cefuroximeaxetil(R)] | Low (key: High: HIA value ≥0.7; Low: HIA value < 0.7) | 0.36
CC(C)(C)NCC(O)COc1ccccc1C1CCCC1 (stereo in doubt) [Penbutolol(R)] | High (key: High: HIA value ≥0.7; Low: HIA value < 0.7) | 1
CC(C)(C)c1ccc([C@@H](O)CCCN2CCC(C(O)(c3ccccc3)c3ccccc3)CC2)cc1 [Terfenadine(S)] | High (key: High: HIA value ≥0.7; Low: HIA value < 0.7) | 1
O[C@](CCN1CCCCC1)(c1ccccc1)C1CCCCC1 [Trihexyphenidyl(S)] | High (key: High: HIA value ≥0.7; Low: HIA value < 0.7) | 1
CN(Cc1cnc2nc(N)nc(N)c2n1)c1ccc(C(=O)N[C@@H](CCC(=O)O)C(=O)O)cc1 [Methotrexate(S)] | High (key: High: HIA value ≥0.7; Low: HIA value < 0.7) | 1
CC(C)NC[C@@H](O)c1cc(O)cc(O)c1 [Metaproterenol(S)] | Low (key: High: HIA value ≥0.7; Low: HIA value < 0.7) | 0.43
O=C1CN=C(c2ccccc2)c2cc([N+](=O)[O-])ccc2N1 [Nitrazepam] | High (key: High: HIA value ≥0.7; Low: HIA value < 0.7) | 0.95
C[N+]1(C)CCCC1COC(=O)C(O)(c1ccccc1)c1ccccc1 (stereo not shown) [Poldine] | Low (key: High: HIA value ≥0.7; Low: HIA value < 0.7) | 0.05
C[C@H]1COc2c(N3CCN(C)CC3)c(F)cc3c(=O)c(C(=O)O)cn1c23 [Ofloxacin(S)] | High (key: High: HIA value ≥0.7; Low: HIA value < 0.7) | 1
Cc1ccccc1N1C(=O)c2cc(S(N)(=O)=O)c(Cl)cc2N[C@@H]1C [Metolazone(S)] | Low (key: High: HIA value ≥0.7; Low: HIA value < 0.7) | 0.64
C[C@@H](CN1c2ccccc2Sc2ccccc21)N(C)C [Promethazine(S)] | High (key: High: HIA value ≥0.7; Low: HIA value < 0.7) | 0.95
NS(=O)(=O)c1cc2c(cc1Cl)N[C@@H](CC1CCCC1)NS2(=O)=O [Cyclopenthiazide(R)] | High (key: High: HIA value ≥0.7; Low: HIA value < 0.7) | 1
CCN1CCC[C@H]1CNC(=O)c1c(OC)ccc(Br)c1OC [Remoxipride(S)] | High (key: High: HIA value ≥0.7; Low: HIA value < 0.7) | 1
O=C(c1ccccc1)c1ccc2n1CC[C@H]2C(=O)O [Ketorolac(R)] | High (key: High: HIA value ≥0.7; Low: HIA value < 0.7) | 0.95
C[C@H](CN1c2ccccc2Sc2ccccc21)N(C)C [Promethazine(R)] | High (key: High: HIA value ≥0.7; Low: HIA value < 0.7) | 0.95
C#CCN(C)[C@H](C)Cc1ccccc1 [Selegiline(R)] | High (key: High: HIA value ≥0.7; Low: HIA value < 0.7) | 1
C[C@@H](O)Cn1cnc2c1c(=O)n(C)c(=O)n2C [Proxyphylline(R)] | High (key: High: HIA value ≥0.7; Low: HIA value < 0.7) | 1
CCCCCCCN(CC)CCC[C@H](O)c1ccc(NS(C)(=O)=O)cc1 [Ibutilide(S)] | High (key: High: HIA value ≥0.7; Low: HIA value < 0.7) | 0.82
Cn1c(=O)c2c(ncn2CCCNC[C@H](O)c2cc(O)cc(O)c2)n(C)c1=O [Reproterol(R)] | Low (key: High: HIA value ≥0.7; Low: HIA value < 0.7) | 0.6
CCN(CCCCOC(=O)c1ccc(OC)c(OC)c1)[C@@H](C)Cc1ccc(OC)cc1 [Mebeverine(S)] | High (key: High: HIA value ≥0.7; Low: HIA value < 0.7) | 0.9
CC(C)(C)NC[C@@H](O)c1ccc(O)c(CO)c1 [Albuterol(S)] | High (key: High: HIA value ≥0.7; Low: HIA value < 0.7) | 0.83

Compound | Class(High: HIA value ≥0.7; Low: HIA value < 0.7) [1] | HIA(Human Intestinal Absorption) [2]
CCCCC(C)(O)C/C=C/[C@H]1[C@H](O)CC(=O)[C@@H]1CCCCCCC(=O)OC (stereo partly drawn) [Misoprostol(R)] | High (key: High: HIA value ≥0.7; Low: HIA value < 0.7) | 0.88
O=C(NC[C@H]1CCCCN1)c1cc(OCC(F)(F)F)ccc1OCC(F)(F)F [Flecainide(R)] | High (key: High: HIA value ≥0.7; Low: HIA value < 0.7) | 0.81
O=C(O[C@H]1C[C@H]2CC[C@@H](C1)[N+]21CCCC1)C(O)(c1ccccc1)c1ccccc1 [Trospium_chloride] | Low (key: High: HIA value ≥0.7; Low: HIA value < 0.7) | 0.1
CCCC(=O)Nc1ccc(OC[C@H](O)CNC(C)C)c(C(C)=O)c1 [Acebutolol(R)] | High (key: High: HIA value ≥0.7; Low: HIA value < 0.7) | 0.85
C[C@@H](NC(C)(C)C)C(=O)c1cccc(Cl)c1 [Bupropion(R)] | High (key: High: HIA value ≥0.7; Low: HIA value < 0.7) | 0.87
CC(N)C(O)c1ccccc1 (stereo not shown) [Phenylpropanolamine] | High (key: High: HIA value ≥0.7; Low: HIA value < 0.7) | 0.95
CC(C)(C)NC[C@H](O)c1ccc(O)c(CO)c1 [Albuterol(R)] | High (key: High: HIA value ≥0.7; Low: HIA value < 0.7) | 0.83
CCN[C@@H](C)Cc1cccc(C(F)(F)F)c1 [Fenfluramine(S)] | High (key: High: HIA value ≥0.7; Low: HIA value < 0.7) | 0.95
CCCNC(=O)NS(=O)(=O)c1ccc(Cl)cc1 [Chorpropamide] | High (key: High: HIA value ≥0.7; Low: HIA value < 0.7) | 0.95
CCC[C@@H](C)C1(CC)C(=O)NC(=O)NC1=O [Pentobarbital(R)] | High (key: High: HIA value ≥0.7; Low: HIA value < 0.7) | 1
COc1cc2nc(N3CCN(C(=O)[C@H]4COc5ccccc5O4)CC3)nc(N)c2cc1OC [Doxazosin(R)] | High (key: High: HIA value ≥0.7; Low: HIA value < 0.7) | 1
COC(=O)C1=C(C)NC(C)=C(C(=O)OC(C)C)[C@@H]1c1cccc2nonc12 [Isradipine(R)] | High (key: High: HIA value ≥0.7; Low: HIA value < 0.7) | 0.92
COC(=O)C(c1ccccc1Cl)N1CCc2sccc2C1 (stereo in doubt) [Clopidogrel(R)] | Low (key: High: HIA value ≥0.7; Low: HIA value < 0.7) | 0.5
CC(C)(C)NC[C@@H](O)c1ccc(O)c(CO)n1 [Pirbuterol(R)] | Low (key: High: HIA value ≥0.7; Low: HIA value < 0.7) | 0.6
COc1ccc(CCN(C)CCCN2CCc3cc(OC)c(OC)cc3CC2=O)cc1OC [Zatebradin] | High (key: High: HIA value ≥0.7; Low: HIA value < 0.7) | 0.79
NC[C@H]1O[C@H](O[C@H]2[C@H](O)[C@@H](O[C@H]3O[C@H](CO)[C@@H](O)[C@H](N)[C@H]3O)[C@H](N)C[C@@H]2N)[C@H](O)[C@@H](O)[C@@H]1O [Kanamycin] | Low (key: High: HIA value ≥0.7; Low: HIA value < 0.7) | 0.01
O=C1CN=C(c2ccccn2)c2cc(Br)ccc2N1 [Bromazepam] | High (key: High: HIA value ≥0.7; Low: HIA value < 0.7) | 0.84
CCCCC(=O)N(Cc1ccc(-c2ccccc2-c2nnn[nH]2)cc1)[C@H](C(=O)O)C(C)C [Valsartan(S)] | Low (key: High: HIA value ≥0.7; Low: HIA value < 0.7) | 0.55
CCOc1cc(CC(=O)N[C@@H](CC(C)C)c2ccccc2N2CCCCC2)ccc1C(=O)O [Repaglinide(S)] | High (key: High: HIA value ≥0.7; Low: HIA value < 0.7) | 1
CC(C)(C)c1ccc([C@H](O)CCCN2CCC(C(O)(c3ccccc3)c3ccccc3)CC2)cc1 [Terfenadine(R)] | High (key: High: HIA value ≥0.7; Low: HIA value < 0.7) | 1
